The record followed here is patent publication US8877778B2, “Benzofurane compounds” (Hoffmann-La Roche Inc., priority 2010, dated 2014).

The target of one series is human D3 receptor (Homo sapiens (Human), UniProt P35462). Kind of series: Radioligand binding ([3H]-spiperone) to cloned receptors expressed in HEK-293 EBNA cells. Particulars: HEK293 EBNA cell membranes expressing human D3. The method, then:
(§1) HEK293 EBNA cells were transiently transfected with expression plasmids encoding for the human D2 or D3 or for the human 5-HT2A receptor, respectively. The cells were harvested 48 h post-transfection, washed three times with cold PBS and stored at −80° C. prior to use. The pellet was suspended in cold 50 mM Tris-HCl buffer comprising 10 mM EDTA (pH 7.4) and was homogenized with a Polytron (Kinematica AG, Basel, Switzerland) for 20-30 sec at 12.000 rpm. After centrifugation at 48.000×g for 30 min at 4° C., the pellet was resuspended in cold 10 mM Tris-HCl buffer comprising 0.1 mM EDTA (pH 7.4), homogenized, and centrifuged as above. This pellet was further resuspended in a smaller volume of ice cold 10 mM Tris-HCl buffer comprising 0.1 mM EDTA (pH 7.4) and homogenized with a Polytron for 20-30 sec at 12.000 rpm. The protein content of this homogenate was determined with the Bio-Rad (Bradford) Protein Assay (Biorad Laboratories GmbH, München, Germany) according to the instructions of the manufacturer using gamma globulin as the standard. This homogenate was stored at −80° C. in aliquots and thawed immediately prior to use.
(§2) Aliquots of membrane preparations were thawed at RT, resupended in assay buffer (D2, D3: 50 mM Tris-HCl, 120 mM NaCl, 5 mM MgCl2, 1 mM EDTA, 5 mM KCl, 1.5 mM CaCl2, pH=7.4; 5-HT2A: 50 mM Tris-HCl, 10 mM MgCl2, 1 mM EGTA, pH=7.4), homogenized with a Polytron for 20-30 sec at 12.000 rpm and adjusted to a final concentration of approximately 7.5 μg protein/well (D2, D3) and 15 μg protein/well (5-HT2A), respectively.
(§3) The binding affinity (Ki) of the compounds was determined using radioligand binding. Membranes were incubated in a total volume of 200 μl with a fixed concentration of radioligand (final concentration approximately 0.7 nM [^3H]-spiperone for D2, 0.5 nM [^3H]-spiperone for D3, and 1.1 nM [^3H]-ketanserin for 5-HT2A) and ten concentrations of test compound in ranging between 10 μM-0.1 nM for 1 h at RT. At the end of the incubation, the reaction mixtures were filtered on to unifilter 96-well white microplates with bonded GF/C filters (Packard BioScience, Zürich, Switzerland; preincubated for 1 h in 0.1% polyethylenimine (PEI) in assay buffer) with a Filtermate 196 harvester (Packard BioScience) and washed 3 times with cold assay buffer. The nonspecific binding was determined with equally composed reaction mixtures in the presence of 10 μM unlabelled spiperone. Per well 45 μl of Microscint 40 (Perkin Elmer, Schwerzenbach, Switzerland) was added, plates for sealed, shaken for 20 min and counted for 3 min on a Topcount Microplate Scintillation Counter (Can berra Packard SA, Zürich, Switzerland) with quenching correction.
(§4) The CPM value for each duplicate of a concentration of competing compound was averaged (y1), then the % specific binding was calculated according to the equation (((y1−non-specific)/(total binding−non-specific))×100). Graphs were plotted with the % specific binding using XLfit, a curve fitting program that iteratively plots the data using Levenberg-Marquardt algorithm. The single site competition analysis equation used was y=A+((B−A)/(1+((x/C)D))), where y is the % specific binding, A is the minimum y, B is the maximum y, C is the IC50, x is the log 10 of the concentration of the competing compound and D is the slope of the curve (the Hill Coefficient). […] The affinity constant (Ki) was calculated using the Cheng-Prusoff equation Ki=(IC50/1+([L]/Kd), where [L] is the concentration of radioligand and Kd is the dissociation constant of the radioligand at the receptor as determined by the saturation isotherm.

A further series addresses human D2 receptor (Homo sapiens (Human), UniProt P14416). The series is described as above. Particulars: HEK293 EBNA cell membranes expressing human D2. The method, then: as §1, §2, §3, §4
The target of the next series is human 5-HT2A receptor (Homo sapiens (Human), UniProt P28223). The series is described as follows: Radioligand binding ([3H]-ketanserin) to cloned receptors expressed in HEK-293 EBNA cells. Particulars: HEK293 EBNA cell membranes expressing human 5-HT2A. Here is the method:
as §1, §2, §3, §4

human 5-HT2A receptor, sequence (P28223 whole entry): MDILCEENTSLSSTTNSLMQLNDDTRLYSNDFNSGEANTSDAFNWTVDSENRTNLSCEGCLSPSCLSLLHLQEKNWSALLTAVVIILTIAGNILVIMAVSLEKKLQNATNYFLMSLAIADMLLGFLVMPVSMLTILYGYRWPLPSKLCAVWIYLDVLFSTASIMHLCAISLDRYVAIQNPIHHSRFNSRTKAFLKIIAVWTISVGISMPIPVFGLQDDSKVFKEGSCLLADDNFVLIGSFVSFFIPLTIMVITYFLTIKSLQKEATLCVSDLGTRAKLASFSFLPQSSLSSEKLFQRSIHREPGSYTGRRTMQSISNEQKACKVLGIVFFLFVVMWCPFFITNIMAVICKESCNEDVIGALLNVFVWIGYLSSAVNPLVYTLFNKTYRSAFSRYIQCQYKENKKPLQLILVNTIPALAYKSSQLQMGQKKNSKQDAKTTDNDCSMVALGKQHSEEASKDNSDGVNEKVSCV
human D2 receptor, sequence (P14416 whole entry): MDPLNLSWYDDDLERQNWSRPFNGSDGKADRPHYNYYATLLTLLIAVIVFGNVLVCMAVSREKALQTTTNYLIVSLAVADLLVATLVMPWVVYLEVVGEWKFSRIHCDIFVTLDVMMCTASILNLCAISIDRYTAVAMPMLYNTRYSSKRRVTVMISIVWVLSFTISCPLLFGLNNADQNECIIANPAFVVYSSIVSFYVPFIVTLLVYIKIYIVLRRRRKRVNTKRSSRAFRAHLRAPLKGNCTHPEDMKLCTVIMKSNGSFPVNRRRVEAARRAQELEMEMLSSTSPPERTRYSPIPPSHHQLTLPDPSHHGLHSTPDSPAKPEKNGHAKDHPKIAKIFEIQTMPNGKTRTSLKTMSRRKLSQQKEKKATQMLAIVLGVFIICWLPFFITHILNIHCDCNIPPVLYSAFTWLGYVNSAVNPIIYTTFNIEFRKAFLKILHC
human D3 receptor, sequence (P35462 whole entry): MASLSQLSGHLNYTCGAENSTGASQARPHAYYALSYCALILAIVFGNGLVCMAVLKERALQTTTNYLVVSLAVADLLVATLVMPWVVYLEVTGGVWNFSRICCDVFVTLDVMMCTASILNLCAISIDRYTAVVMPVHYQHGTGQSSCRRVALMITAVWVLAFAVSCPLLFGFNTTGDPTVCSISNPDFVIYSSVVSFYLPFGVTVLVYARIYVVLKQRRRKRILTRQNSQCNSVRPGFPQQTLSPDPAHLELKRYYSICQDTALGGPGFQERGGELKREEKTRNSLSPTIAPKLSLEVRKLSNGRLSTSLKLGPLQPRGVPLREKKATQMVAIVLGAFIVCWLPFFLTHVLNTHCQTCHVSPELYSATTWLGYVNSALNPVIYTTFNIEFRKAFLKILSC

`O=C(CC1COCCO1)N[C@H]1CC[C@H](CCN2CCC(c3cccc4occc34)CC2)CC1` (mixture of isomers) [Example 12, trans-N-{4-[2-(4-Benzofuran-4-yl-piperidin-1-yl)-ethyl]-cyclohexyl}-rac-2-[1,4]dioxan-2-yl-acetamide]: the melting point (in general, the temperature of the solid-liquid transition) was 165 °C. Besides, the Ki (commonly a dissociation constant, usually derived from enzyme kinetics or from competition with a known ligand) on human D3 receptor was determined as 5.4 nM. At human D2 receptor, the Ki was determined as 219 nM.

`O=C(CC1COCCO1)N[C@H]1CC[C@H](CCN2CCC(c3cccc4c3CCO4)CC2)CC1` (mixture of isomers) [Example 16, trans-N-(4-{2-[4-(2,3-Dihydro-benzofuran-4-yl)-piperidin-1-yl]-ethyl}-cyclohexyl)-rac-2-[1,4]dioxan-2-yl-acetamide] yielded a melting point of 192 °C. Moreover, the Ki on human 5-HT2A receptor came to 22.3 nM.

`O=C(CC1CCCO1)N[C@H]1CC[C@H](CCN2CCC(c3cccc4c3CCO4)CC2)CC1` (mixture of isomers) [Example 25, trans-N-(4-{2-[4-(2,3-Dihydro-benzofuran-4-yl)-piperidin-1-yl]-ethyl}-cyclohexyl)-rac-2-(tetrahydro-furan-2-yl)-acetamide] returned a melting point of 192 °C.

Consider `O=C(N[C@H]1CC[C@H](CCN2CCC(c3cccc4c3CCO4)CC2)CC1)C1CCCO1` (mixture of isomers) [Example 53, (RS)-Tetrahydro-furan-2-carboxylic acid trans-(4-{2-[4-(2,3-dihydro-benzofuran-4-yl)-piperidin-1-yl]-ethyl}-cyclohexyl)-amide], for which the melting point amounted to 160 °C. In addition, on human D3 receptor, the Ki worked out at 41.5 nM. The Ki at human 5-HT2A receptor was 13.1 nM.

In turn, `O=C(N[C@H]1CC[C@H](CCN2CCC(c3cccc4c3CCO4)CC2)CC1)C1CCCOC1` (mixture of isomers) [Example 54, (RS)-Tetrahydro-pyran-3-carboxylic acid trans-(4-{2-[4-(2,3-dihydro-benzofuran-4-yl)-piperidin-1-yl]-ethyl}-cyclohexyl)-amide] displayed a melting point of 222 °C. Also, the Ki on human D2 receptor was found to be 633 nM. Further, the Ki at human 5-HT2A receptor came to 21.3 nM.

`CCC(C)C(=O)N[C@H]1CC[C@H](CCN2CCC(c3cccc4c3CCO4)CC2)CC1` (mixture of isomers) [Example 62, trans-N-(4-{2-[4-(2,3-Dihydro-benzofuran-4-yl)-piperidin-1-yl]-ethyl}-cyclohexyl)-(RS)-2-methyl-butyramide] displayed a melting point of 210 °C. In addition, the Ki on human D2 receptor was found to be 1200 nM. For the same compound, the Ki at human 5-HT2A receptor was found to be 64.4 nM.

`O=C(C[C@@H]1COCCO1)N[C@H]1CC[C@H](CCN2CCC(c3cccc4c3CCO4)CC2)CC1` [Example 21, trans-N-(4-{2-[4-(2,3-Dihydro-benzofuran-4-yl)-piperidin-1-yl]-ethyl}-cyclohexyl)-(R)-2-[1,4]dioxan-2-yl-acetamide] had a melting point of 190 °C. In addition, the Ki at human 5-HT2A receptor came to 27.9 nM.

`O=C(C[C@H]1COCCO1)N[C@H]1CC[C@H](CCN2CCC(c3cccc4c3CCO4)CC2)CC1` [Example 22, trans-N-(4-{2-[4-(2,3-Dihydro-benzofuran-4-yl)-piperidin-1-yl]-ethyl}-cyclohexyl)-(8)-2-[1,4]dioxan-2-yl-acetamide]: the melting point came to 190 °C. On human 5-HT2A receptor, the Ki turned out to be 19.4 nM.

`O=C(C[C@H]1CCCO1)N[C@H]1CC[C@H](CCN2CCC(c3cccc4c3CCO4)CC2)CC1` [Example 31, trans-N-(4-{2-[4-(2,3-Dihydro-benzofuran-4-yl)-piperidin-1-yl]-ethyl}-cyclohexyl)-(R)-2-(tetrahydro-furan-2-yl)-acetamide]: the melting point was 192 °C.

For `O=C(C[C@@H]1CCCO1)N[C@H]1CC[C@H](CCN2CCC(c3cccc4c3CCO4)CC2)CC1` [Example 32, trans-N-(4-{2-[4-(2,3-Dihydro-benzofuran-4-yl)-piperidin-1-yl]-ethyl}-cyclohexyl)-(S)-2-(tetrahydro-furan-2-yl)-acetamide], the melting point turned out to be 192 °C.
